Experiments:
[1] = system: B1 B-cells (LPS responder); details: mice, single administration of 100 μg of gliotoxin; cited from earlier work
[2] = system: HCT-15; details: cited from earlier work
[3] = system: Nec (cholangiocellular carcinoma); test: Cell count analysis Nec; assay type: cell-based, human; details: 200 nM gliotoxin, 72 h
Method: (§1) FIG. 8 a-d: Effects of gliotoxin on cell counts of various human tumour cell lines in vitro. Cell counts of a) hepatocellular carcinoma cell lines HepG2, Huh7, SNU398, Hep3b, HeLa (cervix) and the cholangiocarcinoma cell line NEC as well as b) the pancreatic cancer cell line Panc-1 and the melanoma cell lines d) MelJuso, Meljuso-Bcl-2 (+) and 607B after 72 h treatment with 200 nM gliotoxin; c-d) Cell count dose range experiments with c) pancreatic carcinoma cell lines Panc-1 and MiaPaCa as well as melanoma cell lines MelJuso, 518A2 and 607B using 25, 50 100 and 200 nM gliotoxin for 24 h. All data are given relative to control ±standard deviation.
(§2) Tumour cells were seeded at a density of 10,000 cells/well in 24-well plates. 24 h after seeding, medium containing gliotoxin was added to yield desired concentrations of gliotoxin. At time points indicated, culture medium was removed by suction. Adherent cells were washed with DPBS (Cambrex, Verviers, Belgium) and incubated with trypsin (Gibco) at 37° C. Detached cells were transferred to test tubes containing Cellpack isotonic fluid (Sysmex Europe, Bornbarch, Germany) and counted with a Coulter Z1 electronic cell counter (Beckman Coulter, Bedford, UK).

[4] = system: Huh7 (hepatocellular carcinoma); test: Cell count analysis Huh7; assay type: cell-based, human; details: Huh7, 200 nM gliotoxin, 72 h
Method: as §1, §2

[5] = system: cultures from animal cells; details: cited from earlier work
[6] = system: K562 (CML); test: Apoptosis FACS in leukaemia cell line K562; assay type: cell-based; details: K562, 0.2 μM gliotoxin, 24 h
Method: (§3) FIG. 7: (A) The apoptotic activity of gliotoxin on further B-CLL patient samples (CLL4-CLL8) is illustrated. The (non-Notch2-associated) leukaemia cell lines (or the leukaemia cell lines not characterised by ligand-independent Notch2 fragments) Jurkat (T-ALL), SH1 (hairy cell carcinoma), RL-7 and K562 (CML) are resistant to a treatment with 0.2 μM (corresponding to 60 ng/ml) of gliotoxin. Cells were incubated for 24 h+/−gliotoxin, and the percentage of apoptotic cells (probidium-iodide+/annexinV+) was determined by means of FACS analysis. In none of the 4 non-Notch2-associated cell lines indicated, the application of 0.2 μM of gliotoxin led to a significant induction of apoptosis within 24 hours. The cytotoxic effect of Gliotoxin correlates with the Notch2 activity in leukemias. (B) Corresponding EMSA showing the activity of Notch2 in B-CLL cells and in leukemic cell lines (Jurkat, SH1, RL7, and K562).

[7] = system: Jurkat (T-ALL); test: Apoptosis FACS in leukaemia cell line Jurkat; assay type: cell-based; details: 0.2 μM gliotoxin, 24 h
Method: as §3

[8] = system: U937 (macrophage cell line); details: cited from earlier work
[9] = system: SNU398 (hepatocellular carcinoma); test: Cell count analysis SNU398; assay type: cell-based, human
Method: as §1, §2

[10] = system: 518A2 melanoma xenograft; test: 518A2 melanoma nude mouse xenograft model; assay type: in vivo
Excerpt: FIG. 9: Effects of gliotoxin in a 518A2 melanoma nude mouse xenograft model. 518 A2 cells (9×10^6) were inoculated into the lower right and left flank of each mouse. […] The flexible dose and treatment schedule of each group are given in the squares next to each group in the figure. All data are given as mean tumour volumes ±95% CI. The dotted arrows indicate a significant decrease of tumour volume (Wilcoxon matched pairs test, P<0.05) within Group 2 and Group 4 three days after application of 5 mg-0-2.5 mg of gliotoxin. It was shown that even at late administrations with progressed tumours gliotoxin administration is effective group 4 (ip administration at day 25).
Pathogen-free, 4-6 week old, female athymic nude mice (Harlan Winkelmann, Borchen, Germany) were housed under sterile conditions and treated according to the regulations of the local animal welfare committee. Hundred μl of a tumour cell suspension in DPBS containing 9×10^6 518A2 cells were inoculated into the lower right and left flank of each mouse. When mean tumour volume reached approximately 75 mm^3 (based on caliper measurements), mice (n=8/control group, n=6/treatment group) were randomly assigned to treatment groups and received one of the following treatment regimens:
Control (2% DMSO), Group 1 (start dose 1 mg/kg i.p.), Group 2 (start dose 5 mg/kg i.v.), and Group 3 (start dose 5 mg ip) and Group 4 (start dose 7 mg s.c.).
Flexible explorative dosing schedule was used in this in vivo trial: At baseline, all treatment groups received their respective start dose to estimate immediate toxicity of gliotoxin. Beginning with day 4:
Group 1 received 1 mg/kg daily including day 19.
Group 2 received 5 mg i.v. at day 4 and day 7 followed by 5 mg-0-2.5 mg ip at day 11
Group 3 received 5 mg/kg i.p. once weakly including day 18.
Group 4 remained untreated until day 25 and received then 5 mg-0-2.5 mg once only. The trial was stopped when control mice reached a mean tumour volume of 1000 mm^3.
In the xenograft melanoma model, tumour volume of each group is given as mean±95% confidence interval. The anti-tumour effect of gliotoxin was described as tumour volume of treatment group/tumour volume of control group×100 (T/C).

[11] = system: SH1 (hairy cell carcinoma); test: Apoptosis FACS in leukaemia cell line SH1; assay type: cell-based; details: SH1, 0.2 μM gliotoxin, 24 h
Method: as §3

[12] = system: Meljuso-wt (melanoma); test: Cell count analysis Meljuso-wt; assay type: cell-based, human
Method: as §1, §2

For `CN1C(=O)[C@]23CC4=CC=C[C@H](O)[C@H]4N2C(=O)[C@@]1(CO)SS3` [gliotoxin, [3R-(3α,5aβ,6β,10aα)]-2,3,5a,6-tetrahydro-6-hydroxy-3-(hydroxymethyl)-2-methyl-10H-3,10a-epi-dithiopyrazino[1,2-a]indol-1,4-dion], which “effect on B1 B-cells (LPS responder)” value [1] is on record?
Its value is “complete loss of B1 B-cells”.

And the “IC50 with regard to cell viability” value [2]?
Its value is 0.039 µg/mL.

And the “mean reduction of cell numbers compared to vehicle treated controls” value (from here on “mean reduction of cell numbers”) [3]?
Its value is 93%.

And the “mean reduction of cell numbers” value [4]?
Its value is 31%.

What about the “concentration at which the effect changes towards necrosis” value [5] of the same molecule?
Its value is “more than 10 μM”.

What about the “concentration for complete necrosis of the cell cultures” value [5] of the same molecule?
The value was no less than 50 µM.

And the “induction of apoptosis (probidium-iodide+/annexinV+)” value (“induction of apoptosis” for short) [6]?
The value was “resistant”.

And the “induction of apoptosis” value [7]?
Its value is “resistant”.

And the “IC50 with regard to cell viability” value [8]?
Its value is 0.014 µg/mL.

What about the “mean reduction of cell numbers” value ([9]; SNU398, 200 nM gliotoxin, 72 h) of the same molecule?
Its value is 96%.

What about the response ([9]; SNU-398, 0.2 μM (60 ng/ml)) of the same molecule?
The response was roughly 100%.

And the “T/C (tumour volume of treatment group/control group×100)” value ([10]; Group 1, 1 mg/kg i.p. daily until day 19, day 21)?
The value was 37%.

What about the “T/C (tumour volume of treatment group/control group×100)” value ([10]; Group 2, 3×5 mg iv within 7 days then 1×5 mg-0-2.5 mg ip day 11, day 21) of the same molecule?
The value was 32%.

And the mean tumour volume ([10]; Group 2, day 11 (before application of 5 mg-0-2.5 mg))?
Its mean tumour volume is 115 mm^3.

And the mean tumour volume ([10]; Group 2, day 15 (after application of 5 mg-0-2.5 mg at day 11))?
Its mean tumour volume is 83 mm^3.

What about the “T/C (tumour volume of treatment group/control group×100)” value ([10]; Group 3, 5 mg/kg i.p. weekly until day 18, day 21) of the same molecule?
The value was 49%.

What about the “T/C (tumour volume of treatment group/control group×100)” value ([10]; Group 4, 5 mg-0-2.5 mg once at day 25, day 32) of the same molecule?
Its value is 23%.

And the “toxicity after subcutaneous application” value ([10]; Group 4, 7 mg/kg s.c. start dose, nude mice)?
The value was “severe local toxicity”.

What about the mean tumour volume ([10]; Group 4, day 25 (before application of 5 mg-0-2.5 mg)) of the same molecule?
The mean tumour volume was 576 mm^3.

What about the mean tumour volume ([10]; Group 4, day 28 (after application of 5 mg-0-2.5 mg at day 25)) of the same molecule?
The mean tumour volume was 218 mm^3.

What about the “T/C (tumour volume of treatment group/control group×100)” value ([10]; Group 4, single 7 mg/kg s.c. start dose, then untreated, day 25) of the same molecule?
The value was 92%.

And the “induction of apoptosis” value [11]?
The value was “resistant”.

And the response ([12]; MelJuso (−BCL2), 0.2 μM (60 ng/ml))?
Its response is roughly 100%.

What about the “cytotoxicity in dose range experiment (cell count)” value ([12]; Meljuso, 25, 50, 100 and 200 nM, 24 h) of the same molecule?
The value was “clear dose dependent cytotoxicity”.

What about the “effect on cell count” value ([12]; Meljuso-wt, 200 nM gliotoxin, 72 h) of the same molecule?
Its value is “very effective”.
